“Also recorded” adds a separate entry of the source. Peptide text beside a SMILES is read from it.
Tests used:
[1] = system: FGF14^Y158A/V160A:Nav1.6 complex; assay: LCA, CLuc-FGF14^Y158A/V160A; type: cell-based, human; conditions: 50 µM peptide, 12 hr, HEK293, vs DMSO
[2] = system: FGF14^Y158A:Nav1.6 complex; assay: LCA, CLuc-FGF14^Y158A; type: cell-based, human; conditions: 50 µM peptide, 12 hr, HEK293, vs DMSO
[3] = target: T1, FGF14:Nav1.6 complex (Homo sapiens, UniProt Q92915); assay: Split-luciferase complementation assay (LCA), CLuc-FGF14 wild type; type: cell-based; conditions: for effect on FGF14:Nav1.6 complex formation: 50 µM, 12 hr, HEK293, % maximal luminescence vs DMSO, n = 6–10 independent experiments, FLPK, EYYV p < .01, PLEV p < .001
T1 construct: expressed in transfected cells; host or cells: HEK293, transient transfection
T1 sequence (Q92915 1-252 isoform Q92915-2): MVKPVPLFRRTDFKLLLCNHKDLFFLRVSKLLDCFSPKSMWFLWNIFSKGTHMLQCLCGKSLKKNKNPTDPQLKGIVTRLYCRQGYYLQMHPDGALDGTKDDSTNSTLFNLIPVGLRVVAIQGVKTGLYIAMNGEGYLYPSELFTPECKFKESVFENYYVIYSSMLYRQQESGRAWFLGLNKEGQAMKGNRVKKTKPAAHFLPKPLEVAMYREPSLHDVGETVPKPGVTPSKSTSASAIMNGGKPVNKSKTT
Excerpt: (§1) Plasmids used in this study derived from the following clones: human FGF14‐1b isoform (accession number: NM_175929.2) and human Nav1.6 (accession number: NM_014191.3). The CLuc‐FGF14, CD4‐Nav1.6‐NLuc, constructs and the pcDNA3.1 vector (Invitrogen, Carlsbad, CA) were engineered and characterized as previously described (Goetz et al., 2009; Shavkunov et al., 2012,2013,2015; Ali et al., 2016, 2018; Wadsworth et al., 2019). The plasmid pGL3 expressing full length Firefly (Photinus pyralis) luciferase was a gift from Dr. P. Sarkar (Department of Neurology, UTMB). For protein purification studies, cDNAs encoding FGF14‐1b (accession number NP_787125; aa 64–252) or the C‐terminal tail of Nav1.6 (accession number #NP_001171455; aa 1756–1939) were subcloned into suitable pET bacterial expression vectors (pET28a‐FGF14; pET30a‐Nav1.6) with a 6X His‐tag at the N‐terminal site; these plasmids were a gift of Dr. Moosa Mohammadi (NYU, Langone Medical Center). The mutation coding for FGF14^V160A was generated by site‐directed mutagenesis and PCR using FGF14‐1b as a template described previously (Ali et al., 2016). For electrophysiological studies FGF14‐GFP (human) and FGF14‐ΔNT‐GFP (human) were cloned into the GFP plasmid (pQBI‐fC2; Quantum Biotechnology Inc., Montreal, Canada) as previously described.
HEK293 cells were maintained in DMEM and F‐12 (Invitrogen, Carlsbad, CA), supplemented with 0.05% glucose, 0.5 mM pyruvate, 10% fetal bovine serum, 100 units/ml penicillin, and 100 µg/ml streptomycin (Invitrogen), and incubated at 37 °C with 5% CO2. HEK293 cells stably expressing the human Nav1.6 channel (hereafter referred to as HEK‐Nav1.6 cells) were maintained similarly except for the addition of 500 μg/ml G418 (Invitrogen) to maintain stable Nav1.6 expression. Cells were transfected at 80%–90% confluence with equal amount (1 μg each) of plasmid pairs using Lipofectamine 2000 (Invitrogen) according to manufacturer's instructions. HEK‐Nav1.6 cells were washed and replated at very low density prior to electrophysiological recordings (Ali et al., 2016, 2018; Scala et al., 2018; Wadsworth et al., 2019).
(§2) Twenty‐four hours after transfection, HEK293 cells were replated from the 24‐well plate using a 0.04% Trypsin:EDTA mixture dissolved in PBS. Suspended cells were centrifuged and seeded in white, clear‐bottom 96‐well tissue culture plates (Greiner Bio‐One) in 200 µl of medium. […] The bioluminescence reaction was initiated by dispensing 100 µl of D‐luciferin substrate (1.5 mg/ml dissolved in PBS) using a Synergy^TM H4 Multi‐Mode Micro plate Reader (Biotech, Winooski, VT). Luminescence readings were initiated after 3 s of mild plate shaking and performed at 2 min intervals for 20 min with integration times of 0.5 s. […]
(§3) To test the hypothesis that FLPK, PLEV and/or EYYV in cells could act as FGF14 inhibitors of the FGF14:Nav1.6 complex assembly, the complex was reconstituted using LCA (Ali et al., 2014, 2016; Hsu et al., 2015, 2017; Shavkunov et al., 2012,2013,2015; Wadsworth et al., 2019). HEK293 cells transfected with constructs expressing CLuc‐FGF14 and CD4‐Nav1.6 C‐tail‐NLuc in which luminescence is detected upon addition of the D‐luciferin substrate as a read‐out of protein binding (Figure 3). In‐cell binding of the reconstituted FGF14:Nav1.6 complex in the presence of vehicle (0.1% DMSO) is represented as summary bar graphs of percent maximal luminescence at 10–15 min of reaction time (Figure 3). […]

[4] = system: FGF14^V160A:Nav1.6 complex; assay: LCA, CLuc-FGF14^V160A; type: cell-based, human; conditions: 50 µM peptide, 12 hr, HEK293, vs DMSO
Excerpt: as §1, with “For electrophysiological studies FGF14‐GFP (human) and FGF14‐ΔNT‐GFP (human) were cloned into the GFP plasmid (pQBI‐fC2; Quantum Biotechnology Inc., Montreal, Canada) as previously described.” left out
as §2, with “PBS.” for “PBS. Suspended cells were centrifuged and seeded in white, clear‐bottom 96‐well tissue culture plates (Greiner Bio‐One) in 200 µl of medium.”
as §3, with “3).” for “3). In‐cell binding of the reconstituted FGF14:Nav1.6 complex in the presence of vehicle (0.1% DMSO) is represented as summary bar graphs of percent maximal luminescence at 10–15 min of reaction time (Figure 3).”

| Compound | effect on FGF14^Y158A/V160A:Nav1.6 complex formation [1] | effect on FGF14^Y158A:Nav1.6 complex formation [2] | effect on FGF14:Nav1.6 complex formation [3] | IC50 ([3]; HEK293 cells, FLPK 1, 10, 25, 50, 75, 100, 150, 250 µM, luminescence normalized to DMSO, apparent IC50, read-out: IC50, inhibition of FGF14:Nav1.6 complex formation) [µM] | efficacy in reducing FGF14:Nav1.6 complex formation ([3]; dose-response (Figure 3f), compared to control conditions) | effect on FGF14^V160A:Nav1.6 complex formation [4] |
| --- | --- | --- | --- | --- | --- | --- |
| CC(=O)N[C@@H](Cc1ccccc1)C(=O)N[C@@H](CC(C)C)C(=O)N1CCC[C@H]1C(=O)N[C@@H](CCCCN)C(N)=O [FLPK] (Ac-FLPK-NH2) | prevented the effect of FLPK and EYYV; also recorded: abolished | abolished the effect of FLPK | significant reduction of the FGF14:Nav1.6 complex formation; also recorded: weak inhibition | 58 | above 50% | prevented the effect of FLPK and EYYV; also recorded: abolished |
| EYYV [tetrapeptide previously designed from FGF14:FGF14 dimer interface; docked with N-terminal acetylation and C-terminal amidation] | prevented the effect of FLPK and EYYV; also recorded: abolished | increased the inhibition | significant reduction of the FGF14:Nav1.6 complex formation |  |  | prevented the effect of FLPK and EYYV; also recorded: abolished |
| PLEV [tetrapeptide previously designed from FGF14:FGF14 dimer interface; docked with N-terminal acetylation and C-terminal amidation] | slight, but statistically significant increase; also recorded: not PLEV | increased the inhibition | significant reduction of the FGF14:Nav1.6 complex formation |  |  | not PLEV |

Reference: publication PMC7363588, “Mapping of the FGF14:Nav1.6 complex interface reveals FLPK as a functionally active peptide modulating excitability” (Physiological Reports, 2020)
